The record followed here is US8530388B2, “Cyclopentadione derived herbicides” (Syngenta Limited, priority 2009, dated 2013).

Assay type in all cases: in vivo
Assay [1] has as its system Echinochloa crus-galli (ECHCG). Nature of the assay: Post-emergence herbicidal activity, glasshouse pot test. The following applies: 312 h, rate 250 g/ha, evaluated after 13 days, read-out: Post-emergence activity, ECHCG (100=total damage to plant; 0=no damage to plant). As for the experimental part: (§1) Seeds of a variety of test species were sown in standard soil in pots. After cultivation for one day (pre-emergence) or after 8 days cultivation (post-emergence) under controlled conditions in a glasshouse (at 24/16° C., day/night; 14 hours light; 65% humidity), the plants were sprayed with an aqueous spray solution derived from the formulation of the technical active ingredient in acetone/water (50:50) solution containing 0.5% Tween 20 (polyoxyethelyene sorbitan monolaurate, CAS RN 9005-64-5). The test plants were then grown in a glasshouse under controlled conditions in a glasshouse (at 24/16° C., day/night; 14 hours light; 65% humidity) and watered twice daily. After 13 days for pre and post-emergence, the test was evaluated (100=total damage to plant; 0=no damage to plant).
(§2) Test plants: Setaria faberi (SETFA), Lolium perenne (LOLPE), Alopecurus myosuroides (ALOMY), Echinochloa crus-galli (ECHCG), and Avena fatua (AVEFA)

Assay [2] concerns Lolium perenne (LOLPE). Described as above. The note with it: 312 h, rate 250 g/ha, evaluated after 13 days, read-out: Post-emergence activity, LOLPE (100=total damage to plant; 0=no damage to plant). As for the experimental part: as §1, §2
Assay [3] relates to Alopecurus myosuroides (ALOMY). The description is as above. The following applies: 312 h, rate 250 g/ha, evaluated after 13 days, read-out: Post-emergence activity, ALOMY (100=total damage to plant; 0=no damage to plant). How it is done: as §1, §2
Assay [4] has as its system Avena fatua (AVEFA). The assay is described as above. The following applies: 312 h, rate 250 g/ha, evaluated after 13 days, read-out: Post-emergence activity, AVEFA (100=total damage to plant; 0=no damage to plant). As for the experimental part: as §1, §2
Assay [5] deals with Echinochloa crus-galli (ECHCG). The assay can be described thus: Pre-emergence herbicidal activity, glasshouse pot test. The note with it: 312 h, Rate 250 g/ha, sprayed one day after sowing, evaluated after 13 days, 100=total damage to plant, 0=no damage to plant. As for the experimental part: as §1, with “plant). Test plants: Setaria faberi (SETFA), Lolium perenne (LOLPE), Alopecurus myosuroides (ALOMY), Echinochloa crus-galli (ECHCG), and Avena fatua (AVEFA) Pre-Emergence Activity” for “plant).”

The test system of assay [6] is Lolium perenne (LOLPE). The description is as above. The following applies: 312 h, Rate 250 g/ha, sprayed one day after sowing, evaluated after 13 days, 100=total damage to plant, 0=no damage to plant. As for the experimental part:
as §1, with “plant). Test plants: Setaria faberi (SETFA), Lolium perenne (LOLPE), Alopecurus myosuroides (ALOMY), Echinochloa crus-galli (ECHCG), and Avena fatua (AVEFA) Pre-Emergence Activity” for “plant).”

The subject of assay [7] is Alopecurus myosuroides (ALOMY). The description is as above. The following applies: 312 h, Rate 250 g/ha, sprayed one day after sowing, evaluated after 13 days, 100=total damage to plant, 0=no damage to plant. As for the experimental part: as §1, with “plant). Test plants: Setaria faberi (SETFA), Lolium perenne (LOLPE), Alopecurus myosuroides (ALOMY), Echinochloa crus-galli (ECHCG), and Avena fatua (AVEFA) Pre-Emergence Activity” for “plant).”

Assay [8] relates to Avena fatua (AVEFA). Described as above. The note with it: 312 h, Rate 250 g/ha, sprayed one day after sowing, evaluated after 13 days, 100=total damage to plant, 0=no damage to plant. As for the experimental part: as §1, with “plant). Test plants: Setaria faberi (SETFA), Lolium perenne (LOLPE), Alopecurus myosuroides (ALOMY), Echinochloa crus-galli (ECHCG), and Avena fatua (AVEFA) Pre-Emergence Activity” for “plant).”

With `CCc1ccc(-c2ccc(F)cc2)cc1C1=C(O)CCC1=O` [Compound T-17], the pest or weed control at 250 g/ha in assay [1] was 70%; in assay [2], 50%; in assay [3], 50%; in assay [4], 40%; in assay [5], 80%; in assay [6] it was 60%. The values for the pest or weed control at 250 g/ha in assay [7] and in assay [8] were 40% and 0%, respectively.
As for `CCc1ccc(-c2ccc(C(F)(F)F)cc2)cc1C1=C(O)CCC1=O` [Compound T-18], the pest or weed control at 250 g/ha in assay [1] turned out to be 100%; in assay [2], 70%; in assay [3], 80%; in assay [4], 90%; in assay [5], 50%; in assay [6], 30%. Moreover, the pest or weed control at 250 g/ha in assay [7] came out at 50%; in assay [8] it was 30%.
Turning to `CCc1ccc(-c2ccc(Cl)c(C(F)(F)F)c2F)cc1C1=C(O)CCC1=O` [Compound T-19], the pest or weed control at 250 g/ha was 70% in assay [1]; 60% in assay [2]; 60% in assay [3]; 20% in assay [4]; 10% in assay [5]; 20% in assay [6]. For the same compound, the pest or weed control at 250 g/ha in assay [7] and in assay [8] was 0% in each case.
As to `CCc1ccc(-c2ccc(Cl)c(Cl)c2Cl)cc1C1=C(O)CCC1=O` [Compound T-20], the pest or weed control at 250 g/ha in assay [1] is 70%; in assay [2] it was 20%; in assay [3], 20%; in assay [4], 10%; in assay [5] it was 30%; in assay [6] it was 10%. The pest or weed control at 250 g/ha in assay [7] and in assay [8] was 0% in each case.
For the compound `CCc1ccc(-c2cc(F)c(Cl)c(F)c2)cc1C1=C(O)CCC1=O` [Compound T-21], the pest or weed control at 250 g/ha in assay [1] was 40%; in assay [2] it was 30%; in assay [3] it was 30%; in assay [4], 20%; in assay [5], 40%; in assay [6], 100%. Besides, the pest or weed control at 250 g/ha in assay [7] was 40%; in assay [8], 10%.
`CCc1ccc(-c2cc(Cl)c(F)cc2F)cc1C1=C(O)CCC1=O` [Compound T-22]: the pest or weed control at 250 g/ha in assay [1] worked out at 60%; in assay [2], 10%; in assay [3], 30%; in assay [4], 10%; in assay [5] it was 30%; in assay [6], 10%. Further, the pest or weed control at 250 g/ha in assay [7] and in assay [8] was 0% in each case.
Regarding `O=C1CCC(O)=C1c1cc(-c2ccc(Cl)cc2Cl)ccc1C1CC1` [Compound T-24, 2-(2′,4′-dichloro-4-cyclopropylbiphenyl-3-yl)-cyclopentane-1,3-dione], the pest or weed control at 250 g/ha in assay [1] was 100%; in assay [2], 50%; in assay [3] it was 30%; in assay [4], 10%; in assay [5], 80%; in assay [6], 50%. The pest or weed control at 250 g/ha in assay [7] and in assay [8] was 0% throughout.
